Read-outs that look alike come from different tables or passages of the source.
Columns and labels:
[1] = target: CCR5 (Homo sapiens (Human), UniProt P51681); test: Calcium flux inhibition experiment; format: cell-based; conditions: for IC50: HEK293/CCR5-Gα16 cell line, calcium flux, read-out: CCR5 IC50; for calcium influx inhibition effect in words, versus positive control compounds: conclusion from Table 1
[2] = system: CCR5 protein; test: Thermal stability of protein test (CPM-assay); format: binding; conditions: for protein stability effect in words, versus positive control compound: conclusion from Table 2; for Tm (° C.): thermal stability of CCR5 protein with compound, CPM dye
Procedure, shortened: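 Purified, concentrated CCR5 protein (3–5 μg) was mixed with CPM dye and held 20 min at room temperature. It was then heated from 4 to 90 °C at 1 °C/min while fluorescence (excitation 387 nm, emission 436 nm) from CPM binding to exposed free cysteines was recorded. Tm is the midpoint of the signal change.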

[3] = target: CYP1A2 (Homo sapiens (Human), UniProt P05177); test: CYP450 inhibition activity assay (Vivid kit) CYP1A2; format: in vitro ADME; conditions: CYP450 subtype (μM) 1A2 (IC50)
[4] = target: CYP2C9 (Homo sapiens (Human), UniProt P11712); test: CYP450 inhibition activity assay (Vivid kit) CYP2C9; format: in vitro ADME; conditions: CYP450 subtype (μM) 2C9 (IC50)
[5] = target: CYP2C19 (Homo sapiens (Human), UniProt P33261); test: CYP450 inhibition activity assay (Vivid kit) CYP2C19; format: in vitro ADME; conditions: CYP450 subtype (μM) 2C19 (IC50)
[6] = target: CYP2D6 (Homo sapiens (Human), UniProt P10635); test: CYP450 inhibition activity assay (Vivid kit) CYP2D6; format: in vitro ADME; conditions: CYP450 subtype (μM) 2D6 (IC50)
[7] = target: CYP3A4-M (Homo sapiens (Human), UniProt P08684); test: CYP450 inhibition activity assay (Vivid kit) CYP3A4-M; conditions: CYP450 subtype (μM) 3A4-M (IC50)
Description: (§1) VividR CYP450 Screening Kits can be used to evaluate the effects on CYP450 subtypes (CYP1A2, CYP2D6, CYP2C9, CYP2C19, CYP3A4-T and CYP3A4-M) and the substrate VividR in the kit can be metabolizd to a product which can emit strong fluorescence in an aqueous solution by specific CYP450 enzymes.
(§2) 1. The compounds to be tested and positive compound were added to corresponding wells and DMSO was added to control wells.
(§3) 2. CYP450 enzyme was added to the compounds to be tested, positive compound and DMSO control wells. The enzyme dilution was used to replace enzyme and added to DMSO wells as test background. The mixture was vibrated and mixed for 1 minute, and then incubated at room temperature for 20 minutes.
(§4) 3. NADP^+ regeneration system and the substrate were added to initiate the reaction and incubated at room temperature for 60 minutes.

[8] = target: CYP3A4-T (Homo sapiens (Human), UniProt P08684); test: CYP450 inhibition activity assay (Vivid kit) CYP3A4-T; conditions: CYP450 subtype (μM) 3A4-T (IC50)
Description: as §1, §2, §3, §4

[9] = target: hERG (Homo sapiens (Human), UniProt Q12809)
Description: CHO-hERG cells which have been incubated overnight were added with sample buffer and incubated for 90 minutes at room temperature in darkness.
The sample buffer was removed and assay buffer was added.
The compound is added to the cell plate and incubated for 20 minutes in darkness.
Cell plate was placed into FDSS. The fluorescence signal was recorded every second for 10 seconds. Exciting buffer was added to the cells at the 10th second and the fluorescence signal was recorded every second for 180 seconds

[10] = rat, in vivo
Description: The administration volume was 10 mL/kg and drug was formulated with DMSO/Tween 80/physiological saline (5:5:90, v/v/v). […] 2 h after dosing, the rats ate together.
At above time points, 0.3 ml of venous blood was taken from retrobulbar venous plexus of the rat and loaded into EDTA-2K anticoagulative tube. After centrifuged at 11000 rpm for 5 mm, the plasma was separated and frozen at −20° C. in a refrigerator.
The concentration of each compound in rat plasma was determined by LC/MS/MS.
The pharmacokinetic parameters after administration were calculated by using non-compartment model of WinNonlin 5.3 software (Pharsight Corporation, USA).

CYP2C19, sequence (P33261 whole entry): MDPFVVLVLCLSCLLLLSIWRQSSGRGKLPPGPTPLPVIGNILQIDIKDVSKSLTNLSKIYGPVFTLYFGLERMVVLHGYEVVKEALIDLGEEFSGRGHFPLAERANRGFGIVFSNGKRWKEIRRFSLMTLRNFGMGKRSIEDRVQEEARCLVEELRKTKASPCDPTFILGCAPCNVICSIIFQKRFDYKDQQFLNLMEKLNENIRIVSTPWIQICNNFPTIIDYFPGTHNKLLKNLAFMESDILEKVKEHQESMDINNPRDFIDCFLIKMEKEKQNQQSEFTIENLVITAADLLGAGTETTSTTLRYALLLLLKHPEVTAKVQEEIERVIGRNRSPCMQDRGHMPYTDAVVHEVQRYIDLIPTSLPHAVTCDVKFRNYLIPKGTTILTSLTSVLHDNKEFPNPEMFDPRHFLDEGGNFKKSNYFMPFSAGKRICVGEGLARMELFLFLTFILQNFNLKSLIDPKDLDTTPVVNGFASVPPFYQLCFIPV
CYP1A2, sequence (P05177 whole entry): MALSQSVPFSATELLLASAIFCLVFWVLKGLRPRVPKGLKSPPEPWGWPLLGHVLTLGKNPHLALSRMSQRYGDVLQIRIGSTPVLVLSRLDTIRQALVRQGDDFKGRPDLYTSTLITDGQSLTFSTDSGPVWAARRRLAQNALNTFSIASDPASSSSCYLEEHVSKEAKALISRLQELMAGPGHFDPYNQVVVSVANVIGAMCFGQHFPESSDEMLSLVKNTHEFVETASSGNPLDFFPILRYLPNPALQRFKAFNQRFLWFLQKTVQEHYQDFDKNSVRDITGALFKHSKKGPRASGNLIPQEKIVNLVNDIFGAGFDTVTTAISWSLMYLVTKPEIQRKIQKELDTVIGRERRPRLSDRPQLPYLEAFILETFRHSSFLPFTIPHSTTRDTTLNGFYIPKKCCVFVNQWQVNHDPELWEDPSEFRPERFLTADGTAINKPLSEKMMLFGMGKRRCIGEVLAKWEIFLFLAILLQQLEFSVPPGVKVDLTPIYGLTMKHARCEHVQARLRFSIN
CCR5, sequence (P51681 whole entry): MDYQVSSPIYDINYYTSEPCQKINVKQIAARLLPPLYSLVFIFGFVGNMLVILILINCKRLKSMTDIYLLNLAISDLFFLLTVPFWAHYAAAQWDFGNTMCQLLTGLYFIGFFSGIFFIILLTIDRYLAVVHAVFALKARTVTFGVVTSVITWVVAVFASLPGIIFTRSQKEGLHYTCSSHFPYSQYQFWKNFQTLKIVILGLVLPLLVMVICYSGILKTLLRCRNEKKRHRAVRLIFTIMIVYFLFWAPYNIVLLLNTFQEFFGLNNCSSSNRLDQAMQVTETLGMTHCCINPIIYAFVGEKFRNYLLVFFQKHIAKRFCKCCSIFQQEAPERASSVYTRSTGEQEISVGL
hERG, sequence (Q12809 whole entry): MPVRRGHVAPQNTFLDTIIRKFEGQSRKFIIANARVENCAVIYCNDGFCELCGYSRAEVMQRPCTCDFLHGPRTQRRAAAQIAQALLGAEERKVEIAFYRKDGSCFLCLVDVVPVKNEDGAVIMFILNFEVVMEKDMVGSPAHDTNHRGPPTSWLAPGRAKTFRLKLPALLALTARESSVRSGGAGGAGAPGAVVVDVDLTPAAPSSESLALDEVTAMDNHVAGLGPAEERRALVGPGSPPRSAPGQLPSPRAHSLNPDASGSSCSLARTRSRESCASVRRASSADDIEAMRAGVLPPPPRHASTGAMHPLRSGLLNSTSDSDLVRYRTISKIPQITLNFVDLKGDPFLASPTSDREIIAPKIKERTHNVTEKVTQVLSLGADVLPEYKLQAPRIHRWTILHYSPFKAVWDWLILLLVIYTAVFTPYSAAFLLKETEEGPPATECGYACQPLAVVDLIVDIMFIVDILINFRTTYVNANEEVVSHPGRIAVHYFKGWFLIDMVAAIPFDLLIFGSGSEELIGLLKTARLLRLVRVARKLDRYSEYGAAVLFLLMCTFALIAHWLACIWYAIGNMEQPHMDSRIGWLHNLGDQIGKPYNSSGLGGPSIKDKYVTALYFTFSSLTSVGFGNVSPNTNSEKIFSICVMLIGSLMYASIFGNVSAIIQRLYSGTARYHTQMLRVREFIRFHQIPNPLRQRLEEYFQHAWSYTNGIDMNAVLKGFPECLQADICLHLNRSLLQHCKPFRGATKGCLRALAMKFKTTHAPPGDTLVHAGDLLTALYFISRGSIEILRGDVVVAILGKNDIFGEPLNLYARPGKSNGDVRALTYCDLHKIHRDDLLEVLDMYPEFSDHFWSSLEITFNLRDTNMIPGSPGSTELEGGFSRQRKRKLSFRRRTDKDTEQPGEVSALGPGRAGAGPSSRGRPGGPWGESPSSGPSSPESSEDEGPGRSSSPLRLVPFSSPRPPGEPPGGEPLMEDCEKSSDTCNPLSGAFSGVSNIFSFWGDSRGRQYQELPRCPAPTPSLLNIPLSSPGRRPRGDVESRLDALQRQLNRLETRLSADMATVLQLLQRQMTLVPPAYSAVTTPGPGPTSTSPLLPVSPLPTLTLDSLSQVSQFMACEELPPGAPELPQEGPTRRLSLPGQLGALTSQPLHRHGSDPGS
CYP2D6, sequence (P10635 whole entry): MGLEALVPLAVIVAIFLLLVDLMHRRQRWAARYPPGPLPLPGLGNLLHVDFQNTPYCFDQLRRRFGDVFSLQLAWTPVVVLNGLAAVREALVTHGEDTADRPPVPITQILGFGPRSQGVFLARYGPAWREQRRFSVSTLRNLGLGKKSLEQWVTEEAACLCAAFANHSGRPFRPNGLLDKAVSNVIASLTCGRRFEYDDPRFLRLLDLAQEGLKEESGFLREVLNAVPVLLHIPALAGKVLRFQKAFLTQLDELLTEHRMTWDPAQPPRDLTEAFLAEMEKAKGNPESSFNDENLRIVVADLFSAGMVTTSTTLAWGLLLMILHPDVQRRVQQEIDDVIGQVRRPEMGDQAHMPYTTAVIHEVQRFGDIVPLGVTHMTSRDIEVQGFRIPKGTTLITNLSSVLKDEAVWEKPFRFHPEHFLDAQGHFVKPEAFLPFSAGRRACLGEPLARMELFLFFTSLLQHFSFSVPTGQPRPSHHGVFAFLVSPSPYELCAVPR
CYP2C9, sequence (P11712 whole entry): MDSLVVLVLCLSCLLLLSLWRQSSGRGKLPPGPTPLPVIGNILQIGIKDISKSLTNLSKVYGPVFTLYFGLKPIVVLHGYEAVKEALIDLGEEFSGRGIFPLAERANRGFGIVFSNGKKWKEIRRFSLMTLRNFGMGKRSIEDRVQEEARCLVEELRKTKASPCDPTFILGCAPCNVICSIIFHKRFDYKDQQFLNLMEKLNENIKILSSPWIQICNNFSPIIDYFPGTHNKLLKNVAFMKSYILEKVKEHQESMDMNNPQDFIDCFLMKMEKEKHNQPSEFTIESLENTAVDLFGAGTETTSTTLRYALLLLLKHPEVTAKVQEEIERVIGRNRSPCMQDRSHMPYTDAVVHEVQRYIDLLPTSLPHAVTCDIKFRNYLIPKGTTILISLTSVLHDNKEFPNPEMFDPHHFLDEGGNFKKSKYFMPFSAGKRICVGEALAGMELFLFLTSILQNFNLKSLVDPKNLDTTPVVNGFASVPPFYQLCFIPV
CYP3A4-T, sequence (P08684 whole entry): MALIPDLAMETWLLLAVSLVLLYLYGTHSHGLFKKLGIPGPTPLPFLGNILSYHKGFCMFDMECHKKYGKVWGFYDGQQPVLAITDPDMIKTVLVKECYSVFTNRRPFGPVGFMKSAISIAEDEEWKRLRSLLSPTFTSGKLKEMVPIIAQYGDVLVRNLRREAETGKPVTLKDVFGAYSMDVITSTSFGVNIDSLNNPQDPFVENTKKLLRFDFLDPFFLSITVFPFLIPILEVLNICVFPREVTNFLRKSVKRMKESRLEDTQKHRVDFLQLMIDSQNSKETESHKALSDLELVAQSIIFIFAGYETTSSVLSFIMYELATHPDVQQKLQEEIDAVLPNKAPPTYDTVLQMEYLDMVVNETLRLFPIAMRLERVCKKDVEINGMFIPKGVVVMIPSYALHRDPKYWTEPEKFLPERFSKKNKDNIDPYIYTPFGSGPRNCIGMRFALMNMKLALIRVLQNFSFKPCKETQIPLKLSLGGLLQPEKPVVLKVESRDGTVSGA
CYP3A4-M, sequence (P08684 whole entry): as above

## Cc1nnc(C(C)C)n1C1CC2CCC(C1)N2CC[C@H](NC(=O)C1CCCCC1)c1cccs1 (some centres unmarked) [Compound 16]
[1]
  IC50: 2.23 nM
  calcium influx inhibition effect in words, versus positive control compounds: better than the positive control compounds
[2]
  protein stability effect in words, versus positive control compound: comparable with the positive control compound
  Tm (° C.): 71.32 °C
[3]
  IC50: > 25 µM
[4]
  IC50: > 25 µM
[5]
  IC50: > 25 µM
[6]
  IC50: 15.1 µM
[7]
  IC50: 12.3 µM
[8]
  IC50: 21.7 µM
[9]; human
  IC50: 3.02 µM
[10]; male, 10 mg/kg
  CLz: 1.96 L/h/kg
[10]; male, po, 20 mg/kg
  AUC0-t ng/mL * h: 1512.3 ng·h/mL

## Cc1nnc(C(C)C)n1C1CC2CCC(C1)N2CC[C@H](NC(=O)C1CCCC1)c1cccs1 (stereo partly drawn) [Compound 18, N-[(1S)-3-[exo-3-(3-isopropyl-5-methyl-4H-1,2,4-triazol-4-yl)-8-azabicyclo[3.2.1]octane-8-yl]-1-(thiophen-2-yl)propyl]cyclopentane-1-carboxamide]
[1]
  IC50: 3.73 nM
  calcium influx inhibition effect in words, versus positive control compounds: better than the positive control compounds
[2]
  protein stability effect in words, versus positive control compound: comparable with the positive control compound
  Tm (° C.): 71.73 °C
[3]
  IC50: > 25 µM
[4]
  IC50: > 25 µM
[5]
  IC50: > 25 µM
[6]
  IC50: 16.8 µM
[7]
  IC50: > 25 µM
[8]
  IC50: > 25 µM
[10]; male, 10 mg/kg
  CLz: 6.24 L/h/kg
[10]; male, po, 20 mg/kg
  AUC0-t ng/mL * h: 2801.1 ng·h/mL

## Cc1nnc(C(C)C)n1C1CC2CCC(C1)N2CC[C@H](NC(=O)C1CCC(F)(F)CC1)c1ccsc1 (stereo partly drawn) [Compound 22, 4,4-difluoro-N-[(1S)-3-[exo-3-(3-isopropyl-5-methyl-4H-1,2,4-triazol-4-yl)-8-azabicyclo[3.2.1]octane-8-yl]-1-(thiophen-3-yl)propyl]cyclohexane-1-carboxamide]
[1]
  IC50: 1.05 nM
  calcium influx inhibition effect in words, versus positive control compounds: better than the positive control compounds
[2]
  Tm (° C.): 68.21 °C
[3]
  IC50: > 25 µM
[4]
  IC50: > 25 µM
[5]
  IC50: > 25 µM
[6]
  IC50: > 25 µM
[7]
  IC50: > 25 µM
[8]
  IC50: > 25 µM
[9]
  hERG inhibition activity in words, versus positive control compounds: better that those of positive control compounds
[10]; male, 10 mg/kg
  CLz: 2.40 L/h/kg
[10]; male, po, 20 mg/kg
  AUC0-t ng/mL * h: 1206 ng·h/mL

## Cc1nnc(C(C)C)n1C1CCN(CC[C@H](NC(=O)C2CCCC2)c2cccs2)CC1 [Compound 17, N-[(1S)-3-[4-(3-isopropyl-5-methyl-4H-1,2,4-triazol-4-yl)-piperidin-1-yl]-1-(thiophen-2-yl)propyl]cyclopentane-1-carboxamide]
[1]
  IC50: 2.55 nM
  calcium influx inhibition effect in words, versus positive control compounds: better than the positive control compounds
[2]
  Tm (° C.): 66.97 °C
[3]
  IC50: > 25 µM
[4]
  IC50: > 25 µM
[5]
  IC50: > 25 µM
[6]
  IC50: > 25 µM
[7]
  IC50: > 25 µM
[8]
  IC50: > 25 µM

## Cc1ccc([C@H](CCN2C3CCC2CC(n2c(C)nnc2C(C)C)C3)NC(=O)C2CCC(F)(F)CC2)s1 (stereo partly drawn) [Compound 29, 4,4-difluoro-N-[(1S)-3-[exo-3-(3-isopropyl-5-methyl-4H-1,2,4-triazol-4-yl)-8-azabicyclo[3.2.1]octane-8-yl]-1-(5-methylthiophen-2-yl)propyl]cyclohexane-1-carboxamide]
[3]
  IC50: > 25 µM
[4]
  IC50: > 25 µM
[5]
  IC50: > 25 µM
[6]
  IC50: > 25 µM
[7]
  IC50: 10.9 µM
[8]
  IC50: 23.4 µM
[9]
  IC50: 8.44 µM
  hERG inhibition activity in words, versus positive control compounds: better that those of positive control compounds
[10]; male, 10 mg/kg
  AUC0-t ng/mL * h: 2330.2 ng·h/mL
[10]; male, po, 20 mg/kg
  AUC0-t ng/mL * h: 1870.7 ng·h/mL
[10]; 10 mg/kg
  CLz: 4.29 L/h/kg

## Cc1nnc(C(C)C)n1C1CC2CCC(C1)N2CC[C@H](NC(=O)C1CCC(F)(F)CC1)c1cccs1 (stereo partly drawn) [Compound 14, 4,4-difluoro-N-[(1S)-3-[exo-3-(3-isopropyl-5-methyl-4H-1,2,4-triazol-4-yl)-8-azabicyclo[3.2.1]octane-8-yl]-1-(thiophen-2-yl)propyl]cyclohexane-1-carboxamide]
[1]
  IC50: 2.33 nM
  calcium influx inhibition effect in words, versus positive control compounds: better than the positive control compounds
[2]
  Tm (° C.): 68.10 °C
[10]; male, 10 mg/kg
  CLz: 1.42 L/h/kg
[10]; male, po, 20 mg/kg
  AUC0-t ng/mL * h: 1108 ng·h/mL

Source: patent US10167299B2, “1-(3-aminopropyl) substituted cyclic amine compounds, preparation method therefor, and pharmaceutical compositions and uses thereof” (SHANGHAI INSTITUTE OF MATERIA MEDICA, CHINESE ACADEMY OF …, priority 2013, dated 2019)
